How the values were obtained:
HPH = HPH activity in extracts of treated U251 cells (35S-pVHL pulldown); assay type: cell-based, human; conditions: U251; 2 mM pyruvate or oxaloacetate, 1 mM DMOG; no exogenous reductants, ascorbate or iron
Method: Human HPH-1,2,3 and VHL pcDNA3.1/V5-HIS vectors (kindly provided by R. Bruick) were used for TNT Coupled Reticulocyte Lysate in vitro transcription/translation (Promega). Cytoplasmic extract for HPH activity was made by lysing cell pellets in assay buffer (20 mM Tris, pH 7.5, 5 mM KCl, 1.5 mM MgCl2, and 1 mM DTT) at 4° C. using a homogenizer, centrifuging at 20,000 g for 15 minutes and collecting supernatant for the assay. HPH enzymatic reactions were performed as previously described using either IVT products or cell extracts. This assay, chosen for its specificity for the HPH reaction, was linear over 30 minutes. For each reaction, either 7.5 μL of IVT products or 100 μg of cell extract protein were used as source of the enzyme. Activity was measured by either quantitative scintillation counting or by autoradiography after gel electrophoresis on a 10-20% Tris Glycine gradient gel (Invitrogen).
To test this U251 cells was exposed to glucose-free Krebs buffer to either hypoxia (1% O2) or 2 mM pyruvate for four hours. Nuclear HIF-1α protein accumulation was induced by both treatments (FIG. 6A). Then the cells were either returned to 21% O2 or the pyruvate was removed by extensively washing with glucose-free Krebs buffer. […]

HIF-1α [1] = experiment: HIF-1α hydroxyproline detection in U251 whole cell extracts; assay type: cell-based, human; conditions: U251, four hours, antibody to hydroxylated ODD region
Method: Protein extraction, western blot analysis, and immunocytochemistry were performed as previously described. Mouse monoclonal anti-HIF-1α antibodies were 610958 (BD Biosciences), and NB100-123 (Novus). Mouse monoclonal anti-GFP antibody was 1814460 (Roche). Mouse monoclonal anti-β-actin antibody was ab6276-100 (Abcam). Dimethyloxalylglycine was D1070 (Frontier Scientific). All other chemicals were from Sigma. Antibodies recognizing HPH homologues were from Novus biologicals and the antisera recognizing […] of HIF-1α was kindly provided by R. Freeman.
Some reactive oxygen species can also induce HIF-1α. […] Next, attention was focused on HIF-1α proline hydroxylation as a target for 2-oxoacids.

HIF-1α [2] = conditions: requires conversion to pyruvate via lactate dehydrogenase (Lu et al. 2002); cited from earlier work

Structure (SMILES)	HPH activity in extracts of cells treated for four hours (HPH)	hydroxyproline (Pro564) in induced HIF-1α (HIF-1α [1])	HIF-1α accumulation induced by lactate (HIF-1α [2])
COC(=O)CNC(=O)C(=O)OC [DMOG, dimethyloxalylglycine]	no loss of HPH activity	did not contain hydroxyproline	
CC(O)C(=O)O (stereo not drawn) [lactate]			can induce HIF-1α accumulation

Reference: patent publication US20080045463A1, “Methods For Lowering Hif-1 Mediated Gene Expression” (priority 2004, published 2008)
